From ChEMBL document CHEMBL5614367, “Hydroxamic acid hybrids: Histone deacetylase inhibitors with anticancer therapeutic potency” (Eur J Med Chem, 2023)

Experiments:
LNCaP = experiment: Antiproliferative activity against human LNCaP cells assessed as inhibition of cell growth measured after 72 hrs by SRB assay; assay type: functional, cell-based
LNCaP C4-2 = experiment: Antiproliferative activity against human C4-2 cells assessed as inhibition of cell growth measured after 72 hrs by SRB assay; assay type: functional, cell-based; settings: LNCaP C4-2, 72 h
LNCaP C4-2B = experiment: Antiproliferative activity against human LNCaP C4-2B cells assessed as inhibition of cell growth measured after 72 hrs by SRB assay; assay type: functional, cell-based
LAPC4 = experiment: Antiproliferative activity against human LAPC4 cells assessed as inhibition of cell growth measured after 72 hrs by SRB assay; assay type: functional, cell-based; settings: LAPC4, 72 h
PC-3 = experiment: Antiproliferative activity against human PC-3 cells assessed as inhibition of cell growth measured after 72 hrs by SRB assay; assay type: functional, cell-based; settings: PC-3, 72 h
DU-145 [1] = experiment: Antiproliferative activity against human DU-145 cells assessed as inhibition of cell growth measured after 72 hrs by SRB assay; assay type: functional, cell-based; settings: DU-145, 72 h
CWR22R = experiment: Antiproliferative activity against human 22Rv1 cells assessed as inhibition of cell growth measured after 72 hrs by SRB assay; assay type: functional, cell-based; settings: 22Rv1, 72 h
KYSE-150 cell line = experiment: Antiproliferative activity against human KYSE-150 cells assessed as inhibition of cell growth measured after 72 hrs by CCK-8 assay; assay type: functional, cell-based; settings: KYSE-150, 72 h
KYSE-450 [2] = experiment: Antiproliferative activity against human KYSE-450 cells assessed as inhibition of cell growth measured after 72 hrs by CCK-8 assay; assay type: functional, cell-based; settings: KYSE-450, 72 h
KYSE-510 = experiment: Antiproliferative activity against human KYSE-510 cells assessed as inhibition of cell growth measured after 72 hrs by CCK-8 assay; assay type: functional, cell-based; settings: KYSE-510, 72 h
KYSE-30 = experiment: Antiproliferative activity against human KYSE-30 cells assessed as inhibition of cell growth measured after 72 hrs by CCK-8 assay; assay type: functional, cell-based; settings: KYSE-30, 72 h
ASPC1 = experiment: Antiproliferative activity against human ASPC1 cells assessed as inhibition of cell growth measured after 72 hrs by MTT assay; assay type: functional, cell-based; settings: ASPC1, 72 h
BXPC-3 [3] = experiment: Antiproliferative activity against human BXPC-3 cells assessed as inhibition of cell growth measured after 72 hrs by MTT assay; assay type: functional, cell-based; settings: BXPC-3, 72 h
CFPAC-1 = experiment: Antiproliferative activity against human CFPAC-1 cells assessed as inhibition of cell growth measured after 72 hrs by MTT assay; assay type: functional, cell-based; settings: CFPAC-1, 72 h
HPAC = experiment: Antiproliferative activity against human HPAC cells assessed as inhibition of cell growth measured after 72 hrs by MTT assay; assay type: functional, cell-based
MIA PaCa-2 = experiment: Antiproliferative activity against human MIA PaCa-2 cells assessed as inhibition of cell growth measured after 72 hrs by MTT assay; assay type: functional, cell-based; settings: MIA PaCa-2, 72 h
PANC-1 = experiment: Antiproliferative activity against human PANC-1 cells assessed as inhibition of cell growth measured after 72 hrs by MTT assay; assay type: functional, cell-based; settings: PANC-1, 72 h
KYSE-450 [4] = experiment: Antitumor activity against human KYSE-450 cells xenografted in male C57BL/6 nude mouse assessed as reduction in tumor growth at 200 mg/kg, po administered for 5 days followed by 2 off schedule and measured every third day for 31 days relative to control; assay type: functional; design: scale not given: the % may be the effect or the level left; settings: time 31 day
BXPC-3 [5] = experiment: Antitumor activity against human BXPC-3 cells xenografted in female BALB/c nude mouse assessed as tumor inhibition rate by measuring T/C ratio at 10 mg/kg, ip administered for 20 days and measured every 1 to 3 days relative to control; assay type: functional; settings: time 20 day
A549 = experiment: Antitumor activity against human A549 cells xenografted in assessed as reduction in tumor growth at 50 mg/kg, po administered via oral gavage 5 days on/2 days off dosing and measured on day 10,25 and 31 relative to control; assay type: functional; design: scale not given: the % may be the effect or the level left; settings: time 31 day
[6] = Antitumor activity against human Castration-resistant LuCaP 35CR cells xenografted in male CB17 SCID mouse assessed as inhibition of tumor growth at 100 mg/kg, po administered via oral gavage measured after 19 days relative to control; assay type: functional; settings: 456 h, time 19 day
DU-145 [7] = experiment: cells; assay type: functional, cell-based; settings: Homo sapiens, DU-145, 48 h; pooled result: one value given for 6 cell lines, strains, targets or settings
Histone deacetylase = experiment: Inhibition of human HDAC extracted from human HeLa cell nuclear extract incubated for 30 mins by fluorometric analysis; assay type: subcellular, Nucleus
[8] = target: Epidermal growth factor receptor (Homo sapiens) (UniProt P00533); experiment: Inhibition of EGFR (unknown origin) at 10 uM preincubated for 0.5 hrs followed by substrate addition and measured after 1 hr by ADP-Glo assay relative to control; settings: time 1.5 hrs
Histone deacetylase 2 = Histone deacetylase 2 (Homo sapiens, UniProt Q92769); experiment: Inhibition of HDAC2 (unknown origin)
Histone deacetylase 8 = target: T1, Histone deacetylase 8 (Homo sapiens, UniProt Q9BY41); experiment: Inhibition of HDAC8 (unknown origin)
T1 sequence (Q9BY41 whole entry): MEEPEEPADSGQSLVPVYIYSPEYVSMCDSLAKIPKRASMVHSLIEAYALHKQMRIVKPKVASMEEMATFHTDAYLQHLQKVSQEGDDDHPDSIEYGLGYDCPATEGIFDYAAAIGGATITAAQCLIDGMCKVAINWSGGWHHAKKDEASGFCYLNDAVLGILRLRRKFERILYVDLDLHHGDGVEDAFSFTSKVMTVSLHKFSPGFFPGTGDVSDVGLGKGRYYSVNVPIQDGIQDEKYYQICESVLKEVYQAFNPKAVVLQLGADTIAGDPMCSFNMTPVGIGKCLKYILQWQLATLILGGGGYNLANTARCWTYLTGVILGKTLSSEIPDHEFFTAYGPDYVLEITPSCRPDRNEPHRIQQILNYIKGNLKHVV

K562 = experiment: cells; assay type: functional, cell-based; settings: Homo sapiens, K562, 72 h; pooled result: one value given for 11 cell lines, strains, targets or settings
HCT-116 = experiment: Antitumor activity against human HCT-116 cells xenografted in mouse assessed as tumor weight inhibition at 30 to 150 mg/kg, ip relative to control; assay type: functional; settings: dose 30-150 mg/kg
HGC-27 = experiment: Antitumor activity against human HGC-27 cells xenografted in mouse assessed as tumor weight inhibition at 30 to 150 mg/kg, ip relative to control; assay type: functional; settings: dose 30-150 mg/kg
EL4 = experiment: Antitumor activity against mouse EL4 cells implanted in mouse assessed as tumor weight inhibition at 15 mg/kg, ip measured after 12 days relative to control; assay type: functional; settings: EL4, 288 h, time 12 day
A20 = experiment: Antitumor activity against mouse A20 cells implanted in mouse assessed as tumor weight inhibition at 15 mg/kg, ip measured after 12 days relative to control; assay type: functional; settings: A20, 288 h, time 12 day

Histone deacetylase 2, sequence (Q92769 whole entry): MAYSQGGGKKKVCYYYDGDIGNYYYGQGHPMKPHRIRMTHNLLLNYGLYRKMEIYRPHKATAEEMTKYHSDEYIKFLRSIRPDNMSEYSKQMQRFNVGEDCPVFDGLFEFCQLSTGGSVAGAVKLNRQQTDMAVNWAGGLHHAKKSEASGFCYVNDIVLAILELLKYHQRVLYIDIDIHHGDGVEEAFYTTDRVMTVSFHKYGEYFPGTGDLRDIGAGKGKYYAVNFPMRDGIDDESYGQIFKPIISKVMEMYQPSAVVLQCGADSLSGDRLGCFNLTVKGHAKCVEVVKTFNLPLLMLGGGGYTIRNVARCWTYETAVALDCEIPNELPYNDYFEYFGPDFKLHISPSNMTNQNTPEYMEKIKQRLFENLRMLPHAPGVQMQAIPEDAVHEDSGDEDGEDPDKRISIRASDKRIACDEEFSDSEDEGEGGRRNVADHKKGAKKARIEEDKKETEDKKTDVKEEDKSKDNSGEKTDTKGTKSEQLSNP
Epidermal growth factor receptor (Homo sapiens), sequence (P00533 whole entry): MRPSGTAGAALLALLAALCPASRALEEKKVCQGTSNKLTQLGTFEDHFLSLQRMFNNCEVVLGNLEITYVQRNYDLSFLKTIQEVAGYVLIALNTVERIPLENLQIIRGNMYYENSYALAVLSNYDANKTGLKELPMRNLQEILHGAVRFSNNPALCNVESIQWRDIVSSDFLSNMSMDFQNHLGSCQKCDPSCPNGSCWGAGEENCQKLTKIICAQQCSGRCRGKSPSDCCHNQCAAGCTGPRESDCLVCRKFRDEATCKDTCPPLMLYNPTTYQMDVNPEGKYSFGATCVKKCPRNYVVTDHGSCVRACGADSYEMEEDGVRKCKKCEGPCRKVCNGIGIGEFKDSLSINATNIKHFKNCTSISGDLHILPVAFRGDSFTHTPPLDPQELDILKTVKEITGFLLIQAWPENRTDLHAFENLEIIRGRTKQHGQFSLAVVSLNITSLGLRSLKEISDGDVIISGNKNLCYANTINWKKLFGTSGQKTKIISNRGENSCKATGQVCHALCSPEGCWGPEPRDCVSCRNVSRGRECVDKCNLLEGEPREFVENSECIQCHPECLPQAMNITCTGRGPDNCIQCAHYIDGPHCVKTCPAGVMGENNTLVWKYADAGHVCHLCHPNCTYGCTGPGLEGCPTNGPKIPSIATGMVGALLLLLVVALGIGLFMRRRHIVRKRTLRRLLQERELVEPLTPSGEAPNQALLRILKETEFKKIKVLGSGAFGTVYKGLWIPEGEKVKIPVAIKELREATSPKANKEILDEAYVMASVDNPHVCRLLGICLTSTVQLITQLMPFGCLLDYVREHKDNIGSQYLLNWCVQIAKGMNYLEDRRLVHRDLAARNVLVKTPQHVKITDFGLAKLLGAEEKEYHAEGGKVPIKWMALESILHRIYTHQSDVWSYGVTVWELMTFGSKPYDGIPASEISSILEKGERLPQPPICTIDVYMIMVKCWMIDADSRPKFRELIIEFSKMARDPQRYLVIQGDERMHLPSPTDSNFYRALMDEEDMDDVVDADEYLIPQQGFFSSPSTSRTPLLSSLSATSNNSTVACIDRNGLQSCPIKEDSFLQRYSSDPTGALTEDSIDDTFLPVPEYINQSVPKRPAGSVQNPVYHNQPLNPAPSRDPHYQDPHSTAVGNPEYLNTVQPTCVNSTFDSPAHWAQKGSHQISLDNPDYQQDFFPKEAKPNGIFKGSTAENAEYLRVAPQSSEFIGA

## COc1ccc(-c2nc(N3CCOCC3)c3sc(CN(C)c4ncc(C(=O)NO)cn4)cc3n2)cn1 [FIMEPINOSTAT]
LNCaP
  IC50: 2 nM
LNCaP C4-2
  IC50: 2 nM
LNCaP C4-2B
  IC50: 2 nM
LAPC4
  IC50: 2 nM
PC-3
  IC50: 2 nM
DU-145 [1]
  IC50: 2 nM
CWR22R
  IC50: 2 nM
KYSE-150 cell line
  IC50: 2 nM
KYSE-450 [2]
  IC50: 2 nM
KYSE-510
  IC50: 2 nM
KYSE-30
  IC50: 2 nM
ASPC1
  IC50: 2 nM
BXPC-3 [3]
  IC50: 2 nM
CFPAC-1
  IC50: 2 nM
HPAC
  IC50: 2 nM
MIA PaCa-2
  IC50: 2 nM
PANC-1
  IC50: 2 nM
KYSE-450 [4]
  Activity: ~65%
BXPC-3 [5]
  T/C: 52%
A549
  Activity: ~80%
[6]
  inhibition in vivo at 100 mg/kg: ~60%

## O=C(CCCCCCC(=O)Nc1ccc2ncnc(Nc3cccc(Cl)c3)c2c1)NO
DU-145 [7]
  IC50: 1180 nM
Histone deacetylase
  IC50: 474 nM
[8]
  inhibition: 75%

## COc1ncc(-c2cc(OCCCCCCC(=O)NO)c3ncnc(C)c3c2)cc1F
Histone deacetylase 2
  IC50: 1.4 nM
Histone deacetylase 8
  IC50: 1.4 nM
K562
  IC50: 23 nM
HCT-116
  inhibition (INH): 45.8%
HGC-27
  inhibition (INH): 62.6%
EL4
  inhibition in vivo at 15 mg/kg: 78.1%
A20
  inhibition in vivo at 15 mg/kg: 60%
